From paper PMC12281475, “Mediator Kinase Inhibitor Selectivity and Activity in Colorectal Cancer” (ACS Chemical Biology, 2025)

Legend:
[1] = tested on: CDK8; set-up: method as in numbers not given; conditions: reporter displacement assay; previously characterized compounds, no method in this paper; ref numbers not given; read-out: IC50 for in vitro CDK8 binding; cited from earlier work
[2] = target: T1, CDK5_p25NCK (Homo sapiens, UniProt Q00535); assay: Radiometric protein kinase assay (33PanQinase), CDK5_p25NCK; format: biochemical
T1 construct: purchased Reaction Biology

[3] = target: T2, CDK6_CycD2 (Homo sapiens, UniProt Q00534); assay: Radiometric protein kinase assay (33PanQinase), CDK6_CycD2; format: biochemical
T2 construct: purchased Reaction Biology
T2 sequence (Q00534 whole entry): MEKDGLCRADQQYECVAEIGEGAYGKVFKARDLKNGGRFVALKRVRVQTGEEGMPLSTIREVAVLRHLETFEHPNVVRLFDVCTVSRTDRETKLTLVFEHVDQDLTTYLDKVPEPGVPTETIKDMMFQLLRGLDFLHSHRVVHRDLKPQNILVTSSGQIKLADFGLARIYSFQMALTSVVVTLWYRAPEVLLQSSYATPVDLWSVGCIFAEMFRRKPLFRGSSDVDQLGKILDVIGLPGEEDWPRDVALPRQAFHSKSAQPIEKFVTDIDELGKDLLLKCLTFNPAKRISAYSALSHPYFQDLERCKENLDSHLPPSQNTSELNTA
T2 sequence (P30279 whole entry partner): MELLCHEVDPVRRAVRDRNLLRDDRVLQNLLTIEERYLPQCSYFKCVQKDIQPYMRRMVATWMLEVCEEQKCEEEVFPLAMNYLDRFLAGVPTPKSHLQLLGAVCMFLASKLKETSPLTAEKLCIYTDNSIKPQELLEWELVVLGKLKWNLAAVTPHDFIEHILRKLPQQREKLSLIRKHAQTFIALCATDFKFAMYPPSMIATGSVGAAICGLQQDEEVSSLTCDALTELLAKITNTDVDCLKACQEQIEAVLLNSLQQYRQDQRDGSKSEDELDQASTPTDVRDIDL

[4] = target: T3, CDK6_CycD3 (Homo sapiens, UniProt Q00534); assay: Radiometric protein kinase assay (33PanQinase), CDK6_CycD3; format: biochemical; conditions: slope of the IC50 fit
T3 construct: purchased Reaction Biology
T3 sequence (Q00534 whole entry): as the sequence (Q00534 whole entry) above
T3 sequence (P30281 whole entry partner): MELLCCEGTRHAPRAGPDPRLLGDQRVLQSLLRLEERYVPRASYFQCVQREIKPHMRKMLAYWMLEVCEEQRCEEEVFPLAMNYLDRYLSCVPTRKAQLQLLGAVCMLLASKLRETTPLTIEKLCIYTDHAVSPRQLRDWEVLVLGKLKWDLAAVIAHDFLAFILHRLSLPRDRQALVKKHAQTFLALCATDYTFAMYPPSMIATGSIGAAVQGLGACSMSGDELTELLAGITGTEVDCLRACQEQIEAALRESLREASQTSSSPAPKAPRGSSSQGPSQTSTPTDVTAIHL

[5] = target: T4, CDK2_CycD1 (Homo sapiens, UniProt P24941); assay: Radiometric protein kinase assay (33PanQinase), CDK2_CycD1; format: biochemical
T4 construct: purchased Reaction Biology

[6] = target: T5, CDK1_CycE1 (Homo sapiens, UniProt P06493); assay: Radiometric protein kinase assay (33PanQinase), CDK1_CycE1; format: biochemical
T5 construct: purchased Reaction Biology

[7] = target: CDK14_CycY (Homo sapiens, UniProt O94921); assay: Radiometric protein kinase assay (33PanQinase), CDK14_CycY; format: biochemical
CDK14_CycY, sequence (O94921 whole entry): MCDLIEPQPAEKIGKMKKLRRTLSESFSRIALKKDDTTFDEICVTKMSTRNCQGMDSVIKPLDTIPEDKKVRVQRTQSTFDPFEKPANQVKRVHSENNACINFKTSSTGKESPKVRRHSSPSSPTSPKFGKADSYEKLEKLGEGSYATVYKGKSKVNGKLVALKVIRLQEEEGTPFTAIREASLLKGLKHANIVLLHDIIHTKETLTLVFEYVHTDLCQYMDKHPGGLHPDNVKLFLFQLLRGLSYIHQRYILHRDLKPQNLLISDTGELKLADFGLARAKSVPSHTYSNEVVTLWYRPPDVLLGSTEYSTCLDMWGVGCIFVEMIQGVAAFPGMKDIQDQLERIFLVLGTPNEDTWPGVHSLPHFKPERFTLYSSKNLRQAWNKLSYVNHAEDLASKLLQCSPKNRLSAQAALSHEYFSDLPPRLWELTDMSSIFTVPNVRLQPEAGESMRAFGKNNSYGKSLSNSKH
CDK14_CycY, sequence (Q8ND76 whole entry partner): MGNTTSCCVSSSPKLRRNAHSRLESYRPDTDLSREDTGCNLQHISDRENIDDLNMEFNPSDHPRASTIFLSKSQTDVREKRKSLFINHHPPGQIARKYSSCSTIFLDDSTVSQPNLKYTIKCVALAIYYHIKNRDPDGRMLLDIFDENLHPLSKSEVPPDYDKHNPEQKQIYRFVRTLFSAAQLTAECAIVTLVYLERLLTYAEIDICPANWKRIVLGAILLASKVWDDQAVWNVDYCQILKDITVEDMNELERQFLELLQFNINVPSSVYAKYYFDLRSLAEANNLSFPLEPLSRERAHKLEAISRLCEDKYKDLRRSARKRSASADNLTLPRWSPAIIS

[8] = target: T6, CDK5_p35NCK (Homo sapiens, UniProt Q00535); assay: Radiometric protein kinase assay (33PanQinase), CDK5_p35NCK; format: biochemical
T6 construct: purchased Reaction Biology

[9] = target: T7, CDK1_CycB1 (Homo sapiens, UniProt P06493); assay: Radiometric protein kinase assay (33PanQinase), CDK1_CycB1; format: biochemical
T7 construct: purchased Reaction Biology
T7 sequence (P06493 whole entry): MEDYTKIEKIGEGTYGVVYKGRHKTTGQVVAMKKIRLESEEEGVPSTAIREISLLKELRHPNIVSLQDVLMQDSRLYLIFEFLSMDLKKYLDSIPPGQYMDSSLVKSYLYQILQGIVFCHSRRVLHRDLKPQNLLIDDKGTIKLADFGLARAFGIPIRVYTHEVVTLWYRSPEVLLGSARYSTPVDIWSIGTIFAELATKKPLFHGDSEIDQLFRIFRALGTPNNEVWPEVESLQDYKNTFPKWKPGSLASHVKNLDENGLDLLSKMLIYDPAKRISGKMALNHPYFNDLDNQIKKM
T7 sequence (P14635 whole entry partner): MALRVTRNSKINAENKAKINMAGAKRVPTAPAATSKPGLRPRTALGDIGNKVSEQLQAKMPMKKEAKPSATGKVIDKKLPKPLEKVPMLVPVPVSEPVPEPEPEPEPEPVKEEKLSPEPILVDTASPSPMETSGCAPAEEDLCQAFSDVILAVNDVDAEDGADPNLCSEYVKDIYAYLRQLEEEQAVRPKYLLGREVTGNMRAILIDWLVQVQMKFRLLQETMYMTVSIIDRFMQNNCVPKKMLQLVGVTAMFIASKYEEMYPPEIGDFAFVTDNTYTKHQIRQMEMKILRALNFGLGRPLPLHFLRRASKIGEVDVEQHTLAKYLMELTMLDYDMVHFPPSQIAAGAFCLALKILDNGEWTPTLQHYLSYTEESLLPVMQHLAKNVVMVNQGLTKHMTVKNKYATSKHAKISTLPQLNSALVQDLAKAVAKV

[10] = target: T8, CDK2_CycA2 (Homo sapiens, UniProt P24941); assay: Radiometric protein kinase assay (33PanQinase), CDK2_CycA2; format: biochemical
T8 construct: purchased Reaction Biology

[11] = target: T9, CDK3_CycE1 (Homo sapiens, UniProt Q00526); assay: Radiometric protein kinase assay (33PanQinase), CDK3_CycE1; format: biochemical; conditions: slope of the IC50 fit
T9 construct: purchased Reaction Biology

[12] = target: T10, CDK4_CycD1 (Homo sapiens, UniProt P11802); assay: Radiometric protein kinase assay (33PanQinase), CDK4_CycD1; format: biochemical
T10 construct: purchased Reaction Biology

[13] = target: CDK20_CycH (Homo sapiens, UniProt Q8IZL9); assay: Radiometric protein kinase assay (33PanQinase), CDK20_CycH; format: biochemical
[14] = target: T11, CDK13_CycK (Homo sapiens, UniProt Q14004); assay: Radiometric protein kinase assay (33PanQinase), CDK13_CycK; format: biochemical; conditions: slope of the IC50 fit
T11 construct: purchased Reaction Biology

[15] = target: CDK20_CycT1 (Homo sapiens, UniProt Q8IZL9); assay: Radiometric protein kinase assay (33PanQinase), CDK20_CycT1; format: biochemical
[16] = target: T12, CDK7_CycH_MAT1 (Homo sapiens, UniProt P50613); assay: Radiometric protein kinase assay (33PanQinase), CDK7_CycH_MAT1; format: biochemical
T12 construct: purchased Reaction Biology
T12 sequence (P50613 whole entry): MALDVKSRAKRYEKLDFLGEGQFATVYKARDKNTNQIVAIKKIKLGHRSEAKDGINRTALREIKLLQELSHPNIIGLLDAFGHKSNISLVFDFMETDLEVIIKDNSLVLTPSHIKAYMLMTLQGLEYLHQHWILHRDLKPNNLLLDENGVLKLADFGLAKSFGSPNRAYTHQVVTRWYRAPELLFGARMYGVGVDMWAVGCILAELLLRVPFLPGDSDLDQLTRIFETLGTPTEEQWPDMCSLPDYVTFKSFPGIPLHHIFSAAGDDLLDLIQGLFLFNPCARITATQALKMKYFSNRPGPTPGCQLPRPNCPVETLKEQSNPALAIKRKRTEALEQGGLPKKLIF
T12 sequence (P51946 whole entry partner): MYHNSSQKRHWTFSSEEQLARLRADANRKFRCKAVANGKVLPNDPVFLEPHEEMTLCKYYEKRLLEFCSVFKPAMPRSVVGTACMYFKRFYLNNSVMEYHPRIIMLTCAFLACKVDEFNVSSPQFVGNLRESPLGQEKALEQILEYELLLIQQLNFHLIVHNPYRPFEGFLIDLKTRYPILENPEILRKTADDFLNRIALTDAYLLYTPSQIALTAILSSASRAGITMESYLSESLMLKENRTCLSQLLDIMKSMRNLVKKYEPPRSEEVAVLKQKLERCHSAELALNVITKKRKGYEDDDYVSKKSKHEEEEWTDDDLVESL
T12 sequence (P51948 whole entry partner): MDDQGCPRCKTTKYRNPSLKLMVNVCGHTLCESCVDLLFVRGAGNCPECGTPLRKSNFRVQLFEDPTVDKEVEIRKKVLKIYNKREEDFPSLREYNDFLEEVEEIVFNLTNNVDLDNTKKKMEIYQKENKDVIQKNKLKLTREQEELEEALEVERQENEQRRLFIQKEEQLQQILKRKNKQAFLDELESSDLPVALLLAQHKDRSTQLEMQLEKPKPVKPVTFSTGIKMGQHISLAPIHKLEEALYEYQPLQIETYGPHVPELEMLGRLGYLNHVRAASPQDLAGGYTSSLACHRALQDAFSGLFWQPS

[17] = target: T13, CDK4_CycD2 (Homo sapiens, UniProt P11802); assay: Radiometric protein kinase assay (33PanQinase), CDK4_CycD2; format: biochemical
T13 construct: purchased Reaction Biology
T13 sequence (P11802 whole entry): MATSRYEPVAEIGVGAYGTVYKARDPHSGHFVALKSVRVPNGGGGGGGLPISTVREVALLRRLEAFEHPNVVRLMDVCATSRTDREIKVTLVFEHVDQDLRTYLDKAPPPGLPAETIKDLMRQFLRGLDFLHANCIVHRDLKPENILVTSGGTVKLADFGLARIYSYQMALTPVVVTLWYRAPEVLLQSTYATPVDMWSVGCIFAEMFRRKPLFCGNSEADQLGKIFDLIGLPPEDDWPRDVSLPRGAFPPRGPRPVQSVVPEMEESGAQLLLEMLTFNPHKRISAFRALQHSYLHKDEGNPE
T13 sequence (P30279 whole entry partner): as the sequence (P30279 whole entry partner) above

[18] = target: T14, CDK9_CycT1 (Homo sapiens, UniProt P50750); assay: Radiometric protein kinase assay (33PanQinase), CDK9_CycT1; format: biochemical
T14 construct: purchased Reaction Biology

[19] = target: T15, CDK19_CycC (Homo sapiens, UniProt Q9BWU1); assay: Radiometric protein kinase assay (33PanQinase), CDK19_CycC; format: biochemical
T15 construct: purchased Reaction Biology

[20] = target: T16, CDK3_CycC (Homo sapiens, UniProt Q00526); assay: Radiometric protein kinase assay (33PanQinase), CDK3_CycC; format: biochemical
T16 construct: purchased Reaction Biology

[21] = target: CDK10_CycQ (Homo sapiens, UniProt Q15131); assay: Radiometric protein kinase assay (33PanQinase), CDK10_CycQ; format: biochemical
[22] = target: CDK17_p35NCK (Homo sapiens, UniProt Q00537); assay: Radiometric protein kinase assay (33PanQinase), CDK17_p35NCK; format: biochemical
[23] = target: T17, CDK2_CycE1 (Homo sapiens, UniProt P24941); assay: Radiometric protein kinase assay (33PanQinase), CDK2_CycE1; format: biochemical
T17 construct: purchased Reaction Biology

[24] = target: T18, CDK12_CycK (Homo sapiens, UniProt Q9NYV4); assay: Radiometric protein kinase assay (33PanQinase), CDK12_CycK; format: biochemical; conditions: slope of the IC50 fit
T18 construct: purchased Reaction Biology

[25] = target: T19, CDK6_CycD1 (Homo sapiens, UniProt Q00534); assay: Radiometric protein kinase assay (33PanQinase), CDK6_CycD1; format: biochemical
T19 construct: purchased Reaction Biology

[26] = tested on: COLO205 cells; assay: Promoter reporter panel (transient luciferase constructs), COLO205; format: cell-based, human; conditions: COLO205, 350 nM, 6 h
Method: Transcription factor activity was assayed in cell lines using 45 different plasmid reporter constructs encoding firefly luciferase under the control of a basal promoter element downstream of specific transcriptional response elements (Qiagen, Germany; Supporting Table S1). Firefly luciferase under the control of basal promoter element alone was used to establish the baseline signal and cotransfection of a construct expressing renilla luciferase from a CMV-promoter was used as a transfection control. Cells were reverse-transfected with reporter plasmids, compounds were added 42 h post transfection and reporter activity quantified following 6 h continuous exposure.
Transcription factor promoter reporter assays were carried out to define signalling pathways and biological processes modulated by CDK8/19 ligands. A panel of plasmid reporter constructs encoding firefly luciferase under the control of a basal promoter element with specific transcriptional response elements were used (Qiagen, Germany;
Firefly luciferase under the control of the minimal promoter element (TATA box) alone was used to establish the base-line signal and a construct expressing renilla luciferase from a CMV-promoter was used as a transfection control. COLO205 human colon cancer cells or SW620 parental and CRISPR KO cells were reverse-transfected with the panel of plasmid reporters in a 96 well plate format. The reporter mixes were prepared at 40:1 ratio of fLUC to rLUC plasmid at a final concentration of
100 ng/ml. For each well 1 ul plasmid was complexed with 1 ul Lipofectamine 2000
(Thermo Fisher Scientific, UK) in 50 ul OptiMEM (Thermo Fisher Scientific, UK) media
for 20 mins at room temperature. Cells were trypsinised and 50 ul of cells at 2e5
cells/ml in supplemented DMEM were added to the 50 ul of plasmid:lipofectamine
mixture in OptiMEM in a well of a 96-well white opaque flat bottom microtiter plate.
fLUC and rLUC were measured by the addition of 100 ul dual glo luciferase reagent
(Promega, USA). Reporter activity was quantified in untreated cells 48 hours post- […]

[27] = target: CDK11B 357-795_CycK (Homo sapiens, UniProt P21127); assay: Radiometric protein kinase assay (33PanQinase), CDK11B 357-795_CycK; format: biochemical
CDK11B 357-795_CycK, sequence (P21127 357-795): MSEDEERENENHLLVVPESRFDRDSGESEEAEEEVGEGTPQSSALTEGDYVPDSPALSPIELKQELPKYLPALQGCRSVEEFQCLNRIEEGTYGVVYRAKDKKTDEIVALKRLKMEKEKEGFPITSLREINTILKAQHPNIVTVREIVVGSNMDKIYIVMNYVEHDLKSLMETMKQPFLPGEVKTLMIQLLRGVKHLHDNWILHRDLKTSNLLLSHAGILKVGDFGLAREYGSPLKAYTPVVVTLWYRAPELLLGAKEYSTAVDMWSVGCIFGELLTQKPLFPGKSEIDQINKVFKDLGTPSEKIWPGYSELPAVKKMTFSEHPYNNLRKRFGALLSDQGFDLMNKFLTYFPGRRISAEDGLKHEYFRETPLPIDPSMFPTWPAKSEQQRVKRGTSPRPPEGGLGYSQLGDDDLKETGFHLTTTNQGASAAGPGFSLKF

[28] = target: T20, CDK16_CycY (Homo sapiens, UniProt Q00536); assay: Radiometric protein kinase assay (33PanQinase), CDK16_CycY; format: biochemical
T20 construct: purchased Reaction Biology
T20 sequence (Q00536 whole entry): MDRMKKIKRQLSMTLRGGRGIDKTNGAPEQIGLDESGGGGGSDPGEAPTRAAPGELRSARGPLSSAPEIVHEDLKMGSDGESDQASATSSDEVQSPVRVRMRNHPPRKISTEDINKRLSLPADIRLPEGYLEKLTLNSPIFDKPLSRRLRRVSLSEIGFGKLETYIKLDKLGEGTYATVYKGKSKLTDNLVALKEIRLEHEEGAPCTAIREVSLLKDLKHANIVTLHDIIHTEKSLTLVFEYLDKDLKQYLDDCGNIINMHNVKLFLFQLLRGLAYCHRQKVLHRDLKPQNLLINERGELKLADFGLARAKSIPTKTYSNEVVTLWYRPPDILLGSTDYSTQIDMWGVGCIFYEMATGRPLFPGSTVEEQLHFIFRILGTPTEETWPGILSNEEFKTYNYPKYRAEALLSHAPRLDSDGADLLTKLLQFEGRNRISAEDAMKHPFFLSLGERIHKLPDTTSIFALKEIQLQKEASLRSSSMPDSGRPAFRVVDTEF
T20 sequence (Q8ND76 whole entry partner): as the sequence (Q8ND76 whole entry partner) above

[29] = target: T21, CDK1_CycA2 (Homo sapiens, UniProt P06493); assay: Radiometric protein kinase assay (33PanQinase), CDK1_CycA2; format: biochemical
T21 construct: purchased Reaction Biology

[30] = target: CDK18_CycY (Homo sapiens, UniProt Q07002); assay: Radiometric protein kinase assay (33PanQinase), CDK18_CycY; format: biochemical
[31] = target: T22, CDK8_CycC (Homo sapiens, UniProt P49336); assay: Radiometric protein kinase assay (33PanQinase), CDK8_CycC; format: biochemical
T22 construct: purchased Reaction Biology

[32] = target: T23, CDK15_CycA2 (Homo sapiens, UniProt Q96Q40); assay: Radiometric protein kinase assay (33PanQinase), CDK15_CycA2; format: biochemical
T23 construct: purchased Reaction Biology

[33] = target: T24, CDK9_CycK (Homo sapiens, UniProt P50750); assay: Radiometric protein kinase assay (33PanQinase), CDK9_CycK; format: biochemical
T24 construct: purchased Reaction Biology

[34] = target: T25, CDK4_CycD3 (Homo sapiens, UniProt P11802); assay: Radiometric protein kinase assay (33PanQinase), CDK4_CycD3; format: biochemical
T25 construct: purchased Reaction Biology
T25 sequence (P11802 whole entry): as the sequence (P11802 whole entry) above
T25 sequence (P30281 whole entry partner): as the sequence (P30281 whole entry partner) above

[35] = highest assay concentration 1.00E-05 M
[36] = highest assay concentration 1.00E-05 M, read-out: IC50

## Cn1cc(-c2ccc(-c3cncc(Cl)c3N3CCC4(CCNC4=O)CC3)cc2)cn1 [CCT251545]
[1]
  IC50: 0.005 µM
[2]; [35]
  IC50: > 10 µM
[2]; slope of the IC50 fit
  Hill Slope: -0.59
[3]; [35]
  IC50: > 10 µM
[3]; slope of the IC50 fit
  Hill Slope: -0.64
[4]
  Hill Slope: -0.2
[5]; [36]
  IC50: > 10 µM
[5]; slope of the IC50 fit
  Hill Slope: -0.29
[6]; [36]
  IC50: > 10 µM
[6]; slope of the IC50 fit
  Hill Slope: -0.72
[7]; [35]
  IC50: > 10 µM
[7]; slope of the IC50 fit
  Hill Slope: -0.82
[8]; [35]
  IC50: > 10 µM
[8]; slope of the IC50 fit
  Hill Slope: -1.62
[9]; [35]
  IC50: > 10 µM
[9]; slope of the IC50 fit
  Hill Slope: -0.74
[10]; [36]
  IC50: > 10 µM
[10]; slope of the IC50 fit
  Hill Slope: -0.46
[11]
  Hill Slope: -0.16
[12]; [35]
  IC50: > 10 µM
[12]; slope of the IC50 fit
  Hill Slope: -0.31
[13]; [35]
  IC50: > 10 µM
[13]; slope of the IC50 fit
  Hill Slope: -0.44
[14]
  Hill Slope: 0.15
[15]; [35]
  IC50: > 10 µM
[15]; slope of the IC50 fit
  Hill Slope: -0.39
[16]; [35]
  IC50: > 10 µM
[16]; slope of the IC50 fit
  Hill Slope: -0.59
[17]; [35]
  IC50: > 10 µM
[17]; slope of the IC50 fit
  Hill Slope: -0.3
[18]; [35]
  IC50: 6.07 µM
[18]; slope of the IC50 fit
  Hill Slope: -0.94
[19]
  IC50: 0.277 µM
[19]; slope of the IC50 fit
  Hill Slope: -0.53
[20]
  IC50: > 10 µM
[20]; slope of the IC50 fit
  Hill Slope: -0.47
[21]; [35]
  IC50: > 10 µM
[21]; slope of the IC50 fit
  Hill Slope: -0.51
[22]; [35]
  IC50: > 10 µM
[22]; slope of the IC50 fit
  Hill Slope: -0.17
[23]; [36]
  IC50: > 10 µM
[23]; slope of the IC50 fit
  Hill Slope: -0.5
[24]
  Hill Slope: -0.07
[25]; [35]
  IC50: > 10 µM
[25]; slope of the IC50 fit
  Hill Slope: -1.25
[26]
  reduction of activity of TCF/LEF, SP1 and PAX6 reporter constructs: > 1.5 fold
[26]; p adj < 0.001
  WNT-regulated TCF/LEF reporter construct activity: most significant decrease
[27]; [35]
  IC50: > 10 µM
[27]; slope of the IC50 fit
  Hill Slope: -8.69
[28]; [35]
  IC50: > 10 µM
[28]; slope of the IC50 fit
  Hill Slope: -1.1
[29]; [36]
  IC50: > 10 µM
[29]; slope of the IC50 fit
  Hill Slope: -0.78
[30]; [35]
  IC50: > 10 µM
[30]; slope of the IC50 fit
  Hill Slope: -0.5
[31]
  IC50: 0.0841 µM
[31]; slope of the IC50 fit
  Hill Slope: -0.56
[32]; [35]
  IC50: > 10 µM
[32]; slope of the IC50 fit
  Hill Slope: -0.34
[33]; [35]
  IC50: 3.81 µM
[33]; slope of the IC50 fit
  Hill Slope: -0.78
[34]; [35]
  IC50: > 10 µM
[34]; slope of the IC50 fit
  Hill Slope: -0.27
